Experimental data reported in patent US20060270705A1, “Method for inhibiting lipid absorption and lipid absorption inhibitor” (Japan Tobacco Inc., priority 2005, published 2006).

Key:
[1] = tested on: lipid absorption in the small intestine; experiment: Inhibitory effect on lipid absorption in the small intestine: plasma triglyceride after oral olive oil loading in hamsters; type: in vivo, normal syrian hamsters; details: control group = 100%; for TG Concentration (%): Test 1, olive oil 2 mL/kg 30 min later, plasma 4 hours after olive oil, male 13-week old hamsters; for TG Concentration (4 hours) / TG Concentration (%) (8 hours): Test 2, 30 mg/kg oral, male 12-week old hamsters; for TG Concentration (4 hours): plasma 4 hours after oil loading; for TG Concentration (%) (8 hours): plasma 8 hours after oil loading
Experimental: Test of Inhibitory Effect on Lipid Absorption in the Small Intestine by Various CETP Inhibitors in Hamsters
(§1) Three kinds of CETP inhibitors (compound A: 40 mg/kg, compound B: 3 mg/kg, compound C: 3 mg/kg) suspended in 0.5% aqueous methylcellulose were orally administered to normal syrian hamsters (male, 13-week old). Only 0.5% aqueous methylcellulose was administered to the control group. After 30 minutes, olive oil at a dose of 2 mL/kg was orally loaded. Blood was collected from ophthalmic venous plexus 4 hours after the administration of olive oil, and plasma triglyceride (TG) concentration and CETP inhibitory activity were measured. Plasma triglyceride (TG) concentration was measured by enzymatic method. For CETP activity, the amount of [^3H]CE transferred from donor lipoprotein ([^3H]CE-HDL3) to acceptor lipoprotein (hamster apoB-containing lipoprotein) was used as index.
(§2) Using a test system similar to Test 1, the effects of compound B (30 mg/kg) and compound C (30 mg/kg) in normal syrian hamsters (male, 12-week old) were examined. Blood collection was carried out at 4 and 8 hours after oil loading, and plasma triglyceride (TG) concentration and CETP inhibitory activity were measured.

CETP = CETP activity in hamster plasma after oral dosing: [3H]CE transfer from donor [3H]CE-HDL3 to hamster apoB-containing lipoprotein; type: in vivo, normal syrian hamsters; details: proportion relative to control group = 100%; for CETP Inhibitory Activity (%): Test 1, plasma 4 hours after olive oil; for CETP Inhibitory Activity (%) (8 hours): Test 2, 30 mg/kg oral, plasma 8 hours after oil loading
Experimental: Potassium bromide (KBr) was added to plasma (40 mL) of a healthy subject, adjusted to have a specific density d=1.125 g/mL, and subjected to fractional ultracentrifugation (288,000×g, 4° C., 18 to 20 hr), and a fraction showing a specific density of d>1.125 g/mL (HDL3 fraction) was harvested. The obtained fraction was dialyzed against PBS solution [10 mmol/L Na2HPO4; 10 mmol/L NaH2PO4; 0.15 mol/L NaCl; 1 mmol/L EDTA (pH 7.4)]. Then, tritium-labeled cholesterol (37 MBq) was dissolved in 95% ethanol, gradually added to the above-mentioned HDL3 fraction with stirring and incubated at 37° C. for 18 to 24 hr. [By this operation, tritium-labeled cholesterol was esterified by the action of lecithin cholesterol acyl transferase (LCAT) present on the HDL3 surface and taken up into HDL3 as tritium-labeled cholesteryl ester ([^3H]CE)]. After incubation, KBr was added, the specific density was adjusted to d=1.21 g/mL, and subjected to fractional ultracentrifugation (285,000×g, 4° C., 70 to 90 hr), and a fraction of specific density […] was harvested. The obtained fraction was dialyzed against the aforementioned PBS solution to give HDL3 incorporating [^3H]CE ([^3H]CE-HDL3, specific density: 1.125<d<1.21, specific activity: 22,000-33,000 dpm/μL) as a donor lipoprotein.
as §1, §2

[2] = 3 mg/kg oral in 0.5% methylcellulose

SMILES	TG Concentration (%) [1, 2]	TG Concentration (4 hours) [1]	TG Concentration (%) (8 hours) [1]	CETP Inhibitory Activity (%) (CETP; 3 mg/kg oral)	CETP Inhibitory Activity (%) (8 hours) (CETP)	TG Concentration (%) ([1]; 40 mg/kg oral in 0.5% methylcellulose)	CETP Inhibitory Activity (%) (CETP; 40 mg/kg oral)
CCN(C[C@H]1CC[C@H](CC(=O)O)CC1)c1cc(C)c(C(F)(F)F)cc1CN(Cc1cc(C(F)(F)F)cc(C(F)(F)F)c1)c1nnn(C)n1.CS(=O)(=O)O [Compound B, trans-(4-{[N-(2-{[N′-[3,5-bis(trifluoromethyl)benzyl]-N′-(2-methyl-2H-tetrazol-5-yl)amino]methyl}-5-methyl-4-trifluoromethylphenyl)-N-ethylamino]methyl}cyclohexyl)acetic acid methanesulfonate]	69%	66%	56%	29%	29%	–	–
CCOC(=O)N1c2ccc(C(F)(F)F)cc2[C@@H](N(Cc2cc(C(F)(F)F)cc(C(F)(F)F)c2)C(=O)OC)C[C@H]1CC [Compound C]	69%	85%	71%	20%	37%	–	–
CCC(CC)CC1(C(=O)Nc2ccccc2SC(=O)C(C)C)CCCCC1 [Compound A, S-{2-([[1-(2-ethylbutyl)cyclohexyl]carbonyl]amino)phenyl}2-methylpropanethioate]	–	–	–	–	–	87%	83%
